Assay [1] addresses T1, endogenous cellular BACE2 (Rattus norvegicus, UniProt Q6IE75).
T1 construct: endogenous cellular BACE2 in the Ins1e rat cell line; endogenous in cells; host or cells: INS-TMEM27 (INS1e-derived rat insulinoma cell line with doxycycline-inducible full-length human TMEM27)
T1 sequence (Q6IE75 63-514): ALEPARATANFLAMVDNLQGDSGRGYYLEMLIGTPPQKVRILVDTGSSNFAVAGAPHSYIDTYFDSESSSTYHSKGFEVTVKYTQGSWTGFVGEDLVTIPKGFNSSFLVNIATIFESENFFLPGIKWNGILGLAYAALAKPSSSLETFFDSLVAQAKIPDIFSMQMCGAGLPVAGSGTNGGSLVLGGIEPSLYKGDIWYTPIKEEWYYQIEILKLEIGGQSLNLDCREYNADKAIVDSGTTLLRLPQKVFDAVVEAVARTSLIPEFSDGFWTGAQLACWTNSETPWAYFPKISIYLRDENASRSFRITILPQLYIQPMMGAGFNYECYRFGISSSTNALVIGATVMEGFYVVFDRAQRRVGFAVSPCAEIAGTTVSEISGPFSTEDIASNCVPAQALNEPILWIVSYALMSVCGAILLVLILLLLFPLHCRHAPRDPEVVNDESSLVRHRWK
In words: Assay for BACE inhibition by measuring cellular TMEM27 cleavage. In kind it is cell-based. The note with it: INS-TMEM27 (INS1e-derived) cells, shed human TMEM27 in supernatant by ELISA. In outline:
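INS1e rat cells with doxycycline-inducible human TMEM27 get inhibitor 2 h before doxycycline (500 ng/ml final), then 46 h further at 37° C. Shed TMEM27 in the supernatant is measured by sandwich ELISA, and the EC50 comes from a curve fit of the ELISA signal.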
Background: ELISA stands for enzyme-linked immunosorbent assay.

The subject of assay [2] is Aβ40. In words: Cellular Aβ-lowering assay. In kind it is cell-based. The note with it: HEK293 cells stably expressing human APP695, Aβ40 in supernatant by ELISA after 18-20 hrs; read-out: Cellular assay Abeta40 IC50. The essentials:
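HEK293 cells stably expressing human wild-type APP695 were treated with compound for 18-20 h at 37 °C in 0.8% v/v DMSO. Secreted Aβ40 in the supernatant was measured by sandwich ELISA (Aβ40 C-terminus-specific capture, HRP-4G8 detection, TMB read at 450 nm) and quantified against a pure Aβ peptide standard curve.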

Structures can show the parent of a compound that is named as a salt.

Broadly, the IC50 is the concentration needed to halve the response being measured. Consider `C[C@]1(c2cc(NC(=O)c3cnc(OCC(F)F)cn3)ccc2F)N=C(N)COCC1(F)F` [Example 74, (R)-N-(3-(3-Amino-6,6-difluoro-5-methyl-2,5,6,7-tetrahydro-1,4-oxazepin-5-yl)-4-fluorophenyl)-5-(2,2-difluoroethoxy)pyrazine-2-carboxamide formate], for which the figures for the IC50 in assay [1] and in assay [2] were 3380 nM and 10 nM, respectively.

For `CC[C@]1(c2cc(NC(=O)c3ccccn3)ccc2F)N=C(N)COCC1(F)F` [Example 75, (R)-N-(3-(3-amino-5-ethyl-6,6-difluoro-2,5,6,7-tetrahydro-1,4-oxazepin-5-yl)-4-fluorophenyl)picolinamide], the values for the IC50 in assay [1] and in assay [2] were 89.8 nM and 410 nM, respectively.

With `CC[C@]1(c2cc(NC(=O)c3ncccc3Cl)ccc2F)N=C(N)COCC1(F)F` [Example 76, (R)-N-(3-(3-Amino-5-ethyl-6,6-difluoro-2,5,6,7-tetrahydro-1,4-oxazepin-5-yl)-4-fluorophenyl)-3-chloropicolinamide], the IC50 in assay [1] worked out at 568 nM; in assay [2] it was 4 nM.

As to `CC[C@]1(c2cc(NC(=O)c3ncccc3C(F)(F)F)ccc2F)N=C(N)COCC1(F)F` [Example 77, (R)-N-(3-(3-Amino-5-ethyl-6,6-difluoro-2,5,6,7-tetrahydro-1,4-oxazepin-5-yl)-4-fluorophenyl)-3-(trifluoromethyl)picolinamide], the values for the IC50 in assay [1] and in assay [2] were 179 nM and 750 nM, respectively.

Take `CC[C@]1(c2cc(NC(=O)c3ccc(F)cn3)ccc2F)N=C(N)COCC1(F)F` [Example 78, (R)-N-(3-(3-Amino-5-ethyl-6,6-difluoro-2,5,6,7-tetrahydro-1,4-oxazepin-5-yl)-4-fluorophenyl)-5-fluoropicolinamide]: the IC50 is 74.3 nM in assay [1] and 60 nM in assay [2].

As for `CC[C@]1(c2cc(NC(=O)c3ccc(C#N)cn3)ccc2F)N=C(N)COCC1(F)F` [Example 79, (R)-N-(3-(3-Amino-5-ethyl-6,6-difluoro-2,5,6,7-tetrahydro-1,4-oxazepin-5-yl)-4-fluorophenyl)-5-cyanopicolinamide], the 50% inhibitory concentration (IC50) in assay [1] came to 67.1 nM; in assay [2] it was 70 nM.

Regarding `CC[C@]1(c2cc(NC(=O)c3ncc(Cl)cn3)ccc2F)N=C(N)COCC1(F)F` [Example 80, (R)-N-(3-(3-Amino-5-ethyl-6,6-difluoro-2,5,6,7-tetrahydro-1,4-oxazepin-5-yl)-4-fluorophenyl)-5-chloropyrimidine-2-carboxamide], the IC50 was determined as 55.9 nM in assay [1] and 23 nM in assay [2].

Consider `CC[C@]1(c2cc(NC(=O)c3cccnn3)ccc2F)N=C(N)COCC1(F)F` [Example 81, (R)-N-(3-(3-Amino-5-ethyl-6,6-difluoro-2,5,6,7-tetrahydro-1,4-oxazepin-5-yl)-4-fluorophenyl)pyridazine-3-carboxamide], for which the IC50 in assay [1] turned out to be 421000 nM; in assay [2], 5680 nM.

Regarding `CC[C@]1(c2cc(NC(=O)c3ccc(Cl)cn3)ccc2F)N=C(N)COCC1(F)F` [Example 82, (R)-N-(3-(3-Amino-5-ethyl-6,6-difluoro-2,5,6,7-tetrahydro-1,4-oxazepin-5-yl)-4-fluorophenyl)-5-chloropicolinamide], the IC50 in assay [1] amounted to 36.2 nM; in assay [2], 40 nM.

As to `CC[C@]1(c2cc(NC(=O)c3ncc(Cl)cc3Cl)ccc2F)N=C(N)COCC1(F)F` [Example 83, (R)-N-(3-(3-Amino-5-ethyl-6,6-difluoro-2,5,6,7-tetrahydro-1,4-oxazepin-5-yl)-4-fluorophenyl)-3,5-dichloropicolinamide], the IC50 in assay [1] was determined as 19.7 nM; in assay [2], 15 nM.

As to `CC[C@]1(c2cc(NC(=O)c3ncc(F)cc3Cl)ccc2F)N=C(N)COCC1(F)F` [Example 84, (R)-N-(3-(3-Amino-5-ethyl-6,6-difluoro-2,5,6,7-tetrahydro-1,4-oxazepin-5-yl)-4-fluorophenyl)-3-chloro-5-fluoropicolinamide], the IC50 in assay [1] was determined as 60.2 nM; in assay [2], 130 nM.

`CC[C@]1(c2cc(NC(=O)c3nn(C)cc3Cl)ccc2F)N=C(N)COCC1(F)F` [Example 85, (R)-N-(3-(3-Amino-5-ethyl-6,6-difluoro-2,5,6,7-tetrahydro-1,4-oxazepin-5-yl)-4-fluorophenyl)-4-chloro-1-methyl-1H-pyrazole-3-carboxamide]: the IC50 is 29.2 nM in assay [1] and 280 nM in assay [2].

Take `CC[C@]1(c2cc(NC(=O)c3n[nH]cc3Cl)ccc2F)N=C(N)COCC1(F)F` [Example 86, (R)-N-(3-(3-Amino-5-ethyl-6,6-difluoro-2,5,6,7-tetrahydro-1,4-oxazepin-5-yl)-4-fluorophenyl)-4-chloro-1H-pyrazole-3-carboxamide]: the IC50 in assay [1] came out at 491 nM; in assay [2], 370 nM.

Turning to `CC[C@]1(c2cc(NC(=O)c3ncoc3C)ccc2F)N=C(N)COCC1(F)F` [Example 87, (R)-N-(3-(3-amino-5-ethyl-6,6-difluoro-2,5,6,7-tetrahydro-1,4-oxazepin-5-yl)-4-fluorophenyl)-5-methyloxazole-4-carboxamide], the values for the IC50 in assay [1] and in assay [2] were 134 nM and 1120 nM, respectively.

Take `C[C@]1(c2cc(NC(=O)c3ncc(C(F)(F)F)cc3F)ccc2F)N=C(N)COCC1(F)F` [Example 88, (R)-N-(3-(3-Amino-6,6-difluoro-5-methyl-2,5,6,7-tetrahydro-1,4-oxazepin-5-yl)-4-fluorophenyl)-3-fluoro-5-(trifluoromethyl)picolinamide formate]: the IC50 in assay [1] is 354 nM; in assay [2] it was 5 nM.

Take `COc1ccc(C(=O)Nc2ccc(F)c([C@@]3(C)N=C(N)COCC3(F)F)c2)nc1` [Example 90, (R)-N-(3-(3-Amino-6,6-difluoro-5-methyl-2,5,6,7-tetrahydro-1,4-oxazepin-5-yl)-4-fluorophenyl)-5-methoxypicolinamide formate]: the IC50 is 85.3 nM in assay [1] and 5 nM in assay [2].

Take `CCn1cc(Cl)c(C(=O)Nc2ccc(F)c([C@@]3(CC)N=C(N)COCC3(F)F)c2)n1` [Example 91, (R)-N-(3-(3-Amino-5-ethyl-6,6-difluoro-2,5,6,7-tetrahydro-1,4-oxazepin-5-yl)-4-fluorophenyl)-4-chloro-1-ethyl-1H-pyrazole-3-carboxamide]: the IC50 stood at 453 nM in assay [1] and 1230 nM in assay [2].

In the case of `CC[C@]1(c2cc(NC(=O)c3n[nH]cc3C)ccc2F)N=C(N)COCC1(F)F` [Example 92, (R)-N-(3-(3-Amino-5-ethyl-6,6-difluoro-2,5,6,7-tetrahydro-1,4-oxazepin-5-yl)-4-fluorophenyl)-4-methyl-1H-pyrazole-3-carboxamide], the IC50 was found to be 731 nM in assay [1] and 2800 nM in assay [2].

As for `CCc1n[nH]c(C(=O)Nc2ccc(F)c([C@@]3(CC)N=C(N)COCC3(F)F)c2)c1C` [Example 93, (R)-N-(3-(3-Amino-5-ethyl-6,6-difluoro-2,5,6,7-tetrahydro-1,4-oxazepin-5-yl)-4-fluorophenyl)-3-ethyl-4-methyl-1H-pyrazole-5-carboxamide], the IC50 in assay [1] was determined as 155000 nM; in assay [2], 510 nM.

For `Cc1ccc(C(=O)Nc2ccc(F)c([C@@]3(C)N=C(N)COCC3(F)F)c2)nc1` [Example 94, (R)-N-(3-(3-Amino-6,6-difluoro-5-methyl-2,5,6,7-tetrahydro-1,4-oxazepin-5-yl)-4-fluorophenyl)-5-methylpicolinamide formate], the values for the IC50 in assay [1] and in assay [2] were 24.3 nM and 10 nM, respectively.

In the case of `CCn1cc(Cl)c(C(=O)Nc2ccc(F)c([C@@]3(C)N=C(N)COCC3(F)F)c2)n1` [Example 95, (R)-N-(3-(3-Amino-6,6-difluoro-5-methyl-2,5,6,7-tetrahydro-1,4-oxazepin-5-yl)-4-fluorophenyl)-4-chloro-1-ethyl-1H-pyrazole-3-carboxamide], the concentration for half-maximal inhibition (IC50) is 66.3 nM in assay [1] and 22 nM in assay [2].

For the molecule `C[C@]1(c2cc(NC(=O)c3n[nH]cc3Cl)ccc2F)N=C(N)COCC1(F)F` [Example 96, (R)-N-(3-(3-amino-6,6-difluoro-5-methyl-2,5,6,7-tetrahydro-1,4-oxazepin-5-yl)-4-fluorophenyl)-4-chloro-1H-pyrazole-3-carboxamide], the IC50 came to 295 nM in assay [1] and 57 nM in assay [2].

As for `Cc1c[nH]nc1C(=O)Nc1ccc(F)c([C@@]2(C)N=C(N)COCC2(F)F)c1` [Example 97, (R)-N-(3-(3-Amino-6,6-difluoro-5-methyl-2,5,6,7-tetrahydro-1,4-oxazepin-5-yl)-4-fluorophenyl)-4-methyl-1H-pyrazole-3-carboxamide], the IC50 was 444 nM in assay [1] and 220 nM in assay [2].

For the molecule `Cc1ocnc1C(=O)Nc1ccc(F)c([C@@]2(C)N=C(N)COCC2(F)F)c1` [Example 98, (R)-N-(3-(3-Amino-6,6-difluoro-5-methyl-2,5,6,7-tetrahydro-1,4-oxazepin-5-yl)-4-fluorophenyl)-5-methyloxazole-4-carboxamide], the half-inhibitory concentration (IC50) in assay [1] was determined as 131 nM; in assay [2] it was 39 nM.

Values taken from patent US8673894B2 (Hoffmann-La Roche Inc., priority 2010, dated 2014).
